Measured values: patent US20240083900A1, “PYRAZOLO[1,5-A]PYRAZINE DERIVATIVES AS BTK INHIBITORS” (BIOGEN MA INC., priority 2020, published 2024)
Where two headings read alike, the source gives them in different places.

Key:
[1] = biological target: BTK (Homo sapiens (Human), UniProt Q06187); assay: In Vitro BTK Kinase Assay: Btk-PolyGAT-LS Assay; type: biochemical; conditions: BTK enzyme 0.25 nM, ATP 10 μM, polyGAT 100 nM, 30 minutes incubation, TRF readout; read-out: IC50
Outline: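 Human BTK activity was measured with final 10 μM ATP and 100 nM polyGAT substrate in pH 7.5 Tris buffer with 10 mM MgCl2, DTT, Triton X-100 and casein.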

[2] = system: CD69 expression on CD19+ B cells in human whole blood stimulated with anti-human IgD; assay: In Vitro whole blood CD69 Assay; type: cell-based; conditions: human heparinized whole blood, anti-human IgD stimulation overnight, percentage of CD19+ B cells expressing CD69, flow cytometry
[3] = Homo sapiens, B-cell, read-out: IC50

Sequence of BTK (Q06187 whole entry): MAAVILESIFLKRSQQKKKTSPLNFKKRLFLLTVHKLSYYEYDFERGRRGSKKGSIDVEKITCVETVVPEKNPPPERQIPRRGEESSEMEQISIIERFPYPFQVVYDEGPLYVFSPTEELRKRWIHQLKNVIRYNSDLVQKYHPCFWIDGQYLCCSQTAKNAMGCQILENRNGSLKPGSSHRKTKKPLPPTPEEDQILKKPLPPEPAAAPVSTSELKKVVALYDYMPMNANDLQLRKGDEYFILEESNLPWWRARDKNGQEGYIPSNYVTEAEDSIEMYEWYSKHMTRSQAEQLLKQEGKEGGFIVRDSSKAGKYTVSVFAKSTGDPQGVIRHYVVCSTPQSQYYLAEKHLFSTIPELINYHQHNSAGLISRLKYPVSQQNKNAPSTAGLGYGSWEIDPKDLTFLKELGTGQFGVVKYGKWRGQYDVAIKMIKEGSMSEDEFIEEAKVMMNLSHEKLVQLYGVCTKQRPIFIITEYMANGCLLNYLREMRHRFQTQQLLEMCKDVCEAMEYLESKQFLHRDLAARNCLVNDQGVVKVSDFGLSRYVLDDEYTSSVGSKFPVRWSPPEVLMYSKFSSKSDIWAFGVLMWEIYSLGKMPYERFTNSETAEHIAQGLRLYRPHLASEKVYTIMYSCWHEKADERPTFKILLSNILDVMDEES

Structure (SMILES) | IC50 [1] | IC50 ([2]; read-out: IC50) | IC50 [2, 3] | IC50 ([2]; Homo sapiens, B-cell) | IC50 ([2]; listed as 26 E1, read-out: IC50)
C=CC(=O)N(C)[C@H]1C[C@](Oc2nc(-c3cnn(C)c3)cn3nccc23)(C2CC2)C1 [Example 103, N-((1s,3s)-3-cyclopropyl-3-((6-(1-methyl-1H-pyrazol-4-yl)pyrazolo[1,5-a]pyrazin-4-yl)oxy)cyclobutyl)-N-methylacrylamide] | 0.001 to 0.01 µM | 1 to 10 µM |  |  | 
C=CC(=O)N1CC2CC(C1)C2COc1nc(-c2cnn(C)c2)cn2nccc12 (centres unmarked) [Example 126, 1-(6-(((6-(1-methyl-1H-pyrazol-4-yl)pyrazolo[1,5-a]pyrazin-4-yl)oxy)methyl)-3-azabicyclo[3.1.1]heptan-3-yl)prop-2-en-1-one] | < 0.001 µM |  | < 1 µM |  | 
CC#CC(=O)N(C)[C@@H]1CC[C@H]2C[C@@]2(Oc2nc(-c3cnn(C)c3)cn3nccc23)C1 (single isomer, unassigned) [Example 115] | 0.001 to 0.01 µM |  | 1 to 10 µM |  | 
C#CC(=O)N1CCC[C@@H](Oc2nc(-c3cnn(C)c3)cn3nccc23)CC1 [Example 30, (R)-1-(4-((6-(1-methyl-1H-pyrazol-4-yl)pyrazolo[1,5-a]pyrazin-4-yl)oxy)azepan-1-yl)prop-2-yn-1-one] | < 0.001 µM |  | < 1 µM |  | 
CC#CC(=O)N[C@H]1CC[C@@H](Oc2cc(-c3cnn(C)c3)cn3nccc23)C1 [Example 164, N-[(1S,3R)-3-[6-(1-methylpyrazol-4-yl)pyrazolo[1,5-a]pyridin-4-yl]oxycyclopentyl]but-2-ynamide] | 0.001 to 0.01 µM |  | 1 to 10 µM |  | 
C=CC(=O)N(CC(F)F)[C@H]1C[C@@](C)(Oc2nc(-c3cnn(C)c3)cn3nccc23)C1 [Example 226, N-(2,2-difluoroethyl)-N-((1s,3s)-3-methyl-3-((6-(1-methyl-1H-pyrazol-4-yl)pyrazolo[1,5-a]pyrazin-4-yl)oxy)cyclobutyl)acrylamide] | < 0.001 µM |  | < 1 µM |  | 
C=CC(=O)N1[C@@H]2CC[C@H]1[C@@H](Oc1nc(-c3cnn(C)c3)cn3nccc13)C2 [Example 235, 1-((1S,2S,4R)-2-((6-(1-methyl-1H-pyrazol-4-yl)pyrazolo[1,5-a]pyrazin-4-yl)oxy)-7-azabicyclo[2.2.1]heptan-7-yl)prop-2-en-1-one] | < 0.001 µM |  | < 1 µM |  | 
CC#CC(=O)N[C@H]1CC[C@@H](Oc2nc(-c3cnn(C)c3)cn3ncc(F)c23)C1 [Example 95, N-((1S,3R)-3-((3-fluoro-6-(1-methyl-1H-pyrazol-4-yl)pyrazolo[1,5-a]pyrazin-4-yl)oxy)cyclopentyl) but-2-ynamide] | < 0.001 µM |  | < 1 µM |  | 
C=CC(=O)N1CCO[C@](C)(COc2nc(-c3cnn(C)c3)cn3nccc23)C1 (single isomer, unassigned) [Example 117, (S) or (R)-1-(2-methyl-2-(((6-(1-methyl-1H-pyrazol-4-yl)pyrazolo[1,5-a]pyrazin-4-yl)oxy)methyl)morpholino)prop-2-en-1-one] | 0.001 to 0.01 µM |  | < 1 µM |  | 
C=CC(=O)N1C[C@H]2C[C@@H](C1)[C@@H]2COc1cc(-c2cnn(C)c2)cn2ncc(F)c12 (single isomer, unassigned) [Example 85, 1-((1R,5S,6r) or (1R,5S,6s)-6-(((3-fluoro-6-(1-methyl-1H-pyrazol-4-yl)pyrazolo[1,5-a]pyridin-4-yl)oxy)methyl)-3-azabicyclo[3.1.1]heptan-3-yl)prop-2-en-1-one] | < 0.001 µM | < 1 µM |  |  | 
C=CC(=O)N1CCC[C@@H](Oc2nc(-c3cnn(C)c3)cn3ncc(C#N)c23)CC1 [Example 59, (R)-4-((1-acryloylazepan-4-yl)oxy)-6-(1-methyl-1H-pyrazol-4-yl)pyrazolo[1,5-a]pyrazine-3-carbonitrile] | < 0.001 µM |  | < 1 µM |  | 
CN(C(=O)/C=C/C#N)[C@H]1CC[C@@H](Oc2nc(-c3cnn(C)c3)cn3nccc23)C1 (racemic) [Example 150, rac-(E)-3-cyano-N-methyl-N-((1R,3S)-3-((6-(1-methyl-1H-pyrazol-4-yl)pyrazolo[1,5-a]pyrazin-4-yl)oxy)cyclopentyl)acrylamide] | < 0.001 µM |  | < 1 µM |  | 
C=CC(=O)N(C)[C@H]1C[C@H](Oc2nc(-c3cnn(C)c3)cn3ncc(C(F)F)c23)C1 [Example 64, N-((trans)-3-((3-(difluoromethyl)-6-(1-methyl-1H-pyrazol-4-yl)pyrazolo[1,5-a]pyrazin-4-yl)oxy)cyclobutyl)-N-methylacrylamide] | 0.001 to 0.01 µM |  | < 1 µM |  | 
C=CC(=O)N1C[C@H]2C[C@H](Oc3nc(-c4cnn(C)c4)cn4nccc34)C[C@H]2C1 [Example 174, 1-((3aR,5s,6aS)-5-((6-(1-methyl-1H-pyrazol-4-yl)pyrazolo[1,5-a]pyrazin-4-yl)oxy)hexahydrocyclopenta[c]pyrrol-2(1H)-yl)prop-2-en-1-one] | < 0.001 µM |  | < 1 µM |  | 
C#CC(=O)NCC1CCCN(c2nc(-c3cnn(C)c3)cn3nccc23)C1 (centres unmarked) [Example 25, N-((1-(6-(1-methyl-1H-pyrazol-4-yl)pyrazolo[1,5-a]pyrazin-4-yl)piperidin-3-yl)methyl)propiolamide] | 0.001 to 0.01 µM |  | > 10 µM |  | 
Cn1cc(-c2cn3nccc3c(O[C@]3(C)C[C@H](NC(=O)/C=C/C(F)(F)F)C3)n2)cn1 [Example 231, (E)-4,4,4-trifluoro-N-((1s,3s)-3-methyl-3-((6-(1-methyl-1H-pyrazol-4-yl)pyrazolo[1,5-a]pyrazin-4-yl)oxy)cyclobutyl)but-2-enamide] | < 0.001 µM |  | < 1 µM |  | 
C=CC(=O)N1CCCC[C@H](Oc2nc(-c3cnn(C)c3)cn3nccc23)C1 [Example 55, (S)-1-(3-((6-(1-methyl-1H-pyrazol-4-yl)pyrazolo[1,5-a]pyrazin-4-yl)oxy)azepan-1-yl)prop-2-en-1-one] | 0.01 to 1 µM |  | > 10 µM |  | 
C=CC(=O)N1CC(C)(C)OC(C)(COc2nc(-c3cnn(C)c3)cn3nccc23)C1 (single isomer, unassigned) [Example 120, 1-(2,2,6-trimethyl-6-(((6-(1-methyl-1H-pyrazol-4-yl)pyrazolo[1,5-a]pyrazin-4-yl)oxy)methyl)morpholino)prop-2-en-1-one] | < 0.001 µM |  | < 1 µM |  | 
C=CC(=O)N1CCOC[C@H](Oc2nc(-c3cnn(C)c3)cn3nccc23)C1 [Example 58, (R)-1-(6-((6-(1-methyl-1H-pyrazol-4-yl)pyrazolo[1,5-a]pyrazin-4-yl)oxy)-1,4-oxazepan-4-yl)prop-2-en-1-one] | 0.01 to 1 µM |  | > 10 µM |  | 
C=CS(=O)(=O)N1CCC(Oc2nc(-c3cnn(C)c3)cn3nccc23)CC1 [Example 3, 6-(1-methyl-1H-pyrazol-4-yl)-4-((1-(vinylsulfonyl)piperidin-4-yl)oxy)pyrazolo[1,5-a]pyrazine] | < 0.001 µM |  | > 10 µM |  | 
C=CC(=O)N(C)[C@H]1C[C@@](C)(Oc2nc(-c3cnn(C)c3)cn3nccc23)C1(C)C (single isomer, unassigned) [Example 140] | < 0.001 µM |  |  | < 1 µM | 
C#CC(=O)N(C)C1CCCN(c2nc(-c3cnn(C)c3)cc3nccn23)C1 (centres unmarked) [Example 23, N-methyl-N-[1-[7-(1-methylpyrazol-4-yl)imidazo[1,2-c]pyrimidin-5-yl]-3-piperidyl]prop-2-ynamide] | 0.01 to 1 µM |  | > 10 µM |  | 
CC#CC(=O)N(C)[C@@H]1C[C@@H]2C[C@H]1[C@@H](Oc1nc(-c3cnn(C)c3)cn3nccc13)C2 (racemic) [Example 123, N-methyl-N-((1S,2S,4R,6R)-6-((6-(1-methyl-1H-pyrazol-4-yl)pyrazolo[1,5-a]pyrazin-4-yl)oxy)bicyclo[2.2.1]heptan-2-yl)but-2-ynamide and N-methyl-N-((1R,2R,4S,6S)-6-((6-(1-methyl-1H-pyrazol-4-y)pyrazolo[1,5-a]pyrazin-4-yl)oxy)bicyclo[2.2.1]heptan-2-y)but-2-ynamide] | 0.001 to 0.01 µM | 1 to 10 µM |  |  | 
C#CC(=O)NCC1CCCCN1c1nc(-c2cnn(C)c2)cn2nccc12 (single isomer, unassigned) [Example 26 E1, N-[[1-[6-(1-methylpyrazol-4-yl)pyrazolo[1,5-a]pyrazin-4-yl]-2-piperidyl]methyl]prop-2-ynamide] | 0.01 to 1 µM |  |  |  | > 10 µM
C=CC(=O)N1CCC[C@@H](Oc2nc(-c3cn(C)nc3C)cn3ncnc23)CC1 [Example 70, 1-[(4R)-4-[[6-(1,3-dimethylpyrazol-4-yl)-[1,2,4]triazolo[1,5-a]pyrazin-8-yl]oxy]azepan-1-yl]prop-2-en-1-one] | 0.001 to 0.01 µM |  | 1 to 10 µM |  | 
Cn1cc(-c2cn3nccc3c(N3CCCC(NC(=O)/C=C/CCl)C3)n2)cn1 (centres unmarked) [Example 22, 4-chloro-N-[1-[6-(1-methylpyrazol-4-yl)pyrazolo[1,5-a]pyrazin-4-yl]-3-piperidyl]but-2-enamide] | 0.001 to 0.01 µM |  | 1 to 10 µM |  | 
CC#CC(=O)N(C)C12COCC(Oc3nc(-c4cnn(C)c4)cn4nccc34)(C1)C2 [Example 100, N-methyl-N-(5-((6-(1-methyl-1H-pyrazol-4-yl)pyrazolo[1,5-a]pyrazin-4-yl)oxy)-3-oxabicyclo[3.1.1]heptan-1-yl)but-2-ynamide] | < 0.001 µM |  | < 1 µM |  | 
C=CC(=O)N1CCOCC1CCOc1cc(-c2cnn(C)c2)cn2nccc12 (centres unmarked) [Example 81, 1-(3-(2-((6-(1-methyl-1H-pyrazol-4-yl)pyrazolo[1,5-a]pyridin-4-yl)oxy)ethyl)morpholino)prop-2-en-1-one] | 0.001 to 0.01 µM |  | 1 to 10 µM |  | 
